Assay results as given in the NIST ThermoML archive (doi:10.1016/j.jct.2012.09.004).

How the values were obtained:
[1] = refractive index (Na D-line) (dimensionless); details: 101.33 kPa, Liquid, Standard Abbe refractometry
[2] = Pendant drop shape
[3] = refractive index (Na D-line) (dimensionless); wn = mass fraction of the nth substance listed; details: 101 kPa, Liquid, Standard Abbe refractometry
[4] = wn = mass fraction of the nth substance listed; details: Pendant drop shape

CC(CC(C)(C)C)CP(=O)([O-])CC(C)CC(C)(C)C.CCCCCCCCCCCCCC[P+](CCCCCC)(CCCCCC)CCCCCC
Details	refractive index	surface tension liquid-gas [mN/m]
[1], 283.15 K	1.47702	–
[1], 288.15 K	1.47538	–
[1], 293.15 K	1.47374	–
[1], 298.15 K	1.47209	–
[1], 303.15 K	1.47044	–
[1], 308.15 K	1.46879	–
[1], 313.15 K	1.46712	–
[1], 318.15 K	1.46546	–
[1], 323.15 K	1.46383	–
[1], 328.15 K	1.46216	–
[1], 333.15 K	1.46056	–
[1], 338.15 K	1.45893	–
[1], 343.15 K	1.45716	–
[1], 348.15 K	1.45553	–
[1], 353.15 K	1.45387	–
[2], 297.9 K	–	28.2
[2], 307.9 K	–	27.6
[2], 317.7 K	–	26.9
[2], 328.1 K	–	26.2
[2], 338 K	–	25.5
[2], 342.9 K	–	25

CCCCCCCCCCCCCC[P+](CCCCCC)(CCCCCC)CCCCCC.O=S(=O)([N-]S(=O)(=O)C(F)(F)F)C(F)(F)F
Details	refractive index	surface tension liquid-gas [mN/m]
[1], 283.15 K	1.45436	–
[1], 288.15 K	1.45279	–
[1], 293.15 K	1.4512	–
[1], 298.15 K	1.4496	–
[1], 303.15 K	1.44797	–
[1], 308.15 K	1.44637	–
[1], 313.15 K	1.44476	–
[1], 318.15 K	1.44317	–
[1], 323.15 K	1.44158	–
[1], 328.15 K	1.43948	–
[1], 333.15 K	1.43836	–
[1], 338.15 K	1.43681	–
[1], 343.15 K	1.43524	–
[1], 348.15 K	1.4337	–
[1], 353.15 K	1.43213	–
[2], 298.2 K	–	30.1
[2], 307.9 K	–	29.5
[2], 317.9 K	–	28.7
[2], 327.9 K	–	28.1
[2], 337.8 K	–	27.5
[2], 343.2 K	–	27.3

CC(CC(C)(C)C)CP(=O)([O-])CC(C)CC(C)(C)C.CCCCCCCCCCCCCC[P+](CCCCCC)(CCCCCC)CCCCCC + O
w2 = 0.158
Details	refractive index	surface tension liquid-gas [mN/m]
[3], 298.15 K	1.45864	–
[3], 303.15 K	1.45697	–
[3], 308.15 K	1.45534	–
[3], 313.15 K	1.45363	–
[3], 318.15 K	1.45192	–
[3], 323.15 K	1.45019	–
[3], 328.15 K	1.44849	–
[3], 333.15 K	1.44683	–
[3], 338.15 K	1.44523	–
[3], 343.15 K	1.44374	–
[3], 348.15 K	1.4424	–
[3], 353.15 K	1.44126	–
[4], 297.9 K	–	28.32
[4], 307.9 K	–	27.7
[4], 317.9 K	–	27.24
[4], 328.8 K	–	26.41
[4], 339 K	–	25.6
[4], 343.4 K	–	25.34

CCCCCCCCCCCCCC[P+](CCCCCC)(CCCCCC)CCCCCC.O=S(=O)([N-]S(=O)(=O)C(F)(F)F)C(F)(F)F + O
w2 = 0.0023
Details	refractive index	surface tension liquid-gas [mN/m]
[3], 298.15 K	1.44921	–
[3], 303.15 K	1.44765	–
[3], 308.15 K	1.44606	–
[3], 313.15 K	1.44449	–
[3], 318.15 K	1.44293	–
[3], 323.15 K	1.44136	–
[3], 328.15 K	1.4398	–
[3], 333.15 K	1.43822	–
[3], 338.15 K	1.43669	–
[3], 343.15 K	1.43515	–
[3], 348.15 K	1.43362	–
[3], 353.15 K	1.43207	–
[4], 298.1 K	–	30.05
[4], 307.8 K	–	29.33
[4], 318 K	–	28.6
[4], 328 K	–	27.91
[4], 338.6 K	–	27.17
[4], 343.3 K	–	26.88

CCCCCCCCCCCCCC[P+](CCCCCC)(CCCCCC)CCCCCC.N#C[N-]C#N [tetradecyl(trihexyl)phosphonium dicyanamide]
Details	refractive index	surface tension liquid-gas [mN/m]
[1], 283.15 K	1.48861	–
[1], 288.15 K	1.48706	–
[1], 293.15 K	1.48545	–
[1], 298.15 K	1.48387	–
[1], 303.15 K	1.48228	–
[1], 308.15 K	1.48064	–
[1], 313.15 K	1.47902	–
[1], 318.15 K	1.47744	–
[1], 323.15 K	1.47585	–
[1], 328.15 K	1.47421	–
[1], 333.15 K	1.47252	–
[1], 338.15 K	1.4709	–
[1], 343.15 K	1.46926	–
[1], 348.15 K	1.46767	–
[1], 353.15 K	1.46599	–
[2], 298.4 K	–	32.3
[2], 308 K	–	31.6
[2], 318 K	–	30.9
[2], 328.4 K	–	30.3
[2], 339.2 K	–	29.7
[2], 343.4 K	–	29.4

CCCCCCCCCCCCCC[P+](CCCCCC)(CCCCCC)CCCCCC.N#C[N-]C#N [tetradecyl(trihexyl)phosphonium dicyanamide] + O
w2 = 0.0309
Details	refractive index	surface tension liquid-gas [mN/m]
[3], 298.15 K	1.47866	–
[3], 303.15 K	1.47702	–
[3], 308.15 K	1.47535	–
[3], 313.15 K	1.47367	–
[3], 318.15 K	1.47207	–
[3], 323.15 K	1.47049	–
[3], 328.15 K	1.46893	–
[3], 333.15 K	1.46739	–
[3], 338.15 K	1.46586	–
[3], 343.15 K	1.46442	–
[3], 348.15 K	1.46302	–
[3], 353.15 K	1.46163	–
[4], 298.2 K	–	32.56
[4], 307.8 K	–	31.8
[4], 318 K	–	31.2
[4], 328 K	–	30.5
[4], 338.8 K	–	29.9
[4], 342.8 K	–	29.5

CCCCCCCCCCCCCC[P+](CCCCCC)(CCCCCC)CCCCCC.[Br-] [tetradecyltrihexylphosphonium bromide]
Details	refractive index	surface tension liquid-gas [mN/m]
[1], 283.15 K	1.49456	–
[1], 288.15 K	1.49295	–
[1], 293.15 K	1.49139	–
[1], 298.15 K	1.48977	–
[1], 303.15 K	1.48814	–
[1], 308.15 K	1.48654	–
[1], 313.15 K	1.4849	–
[1], 318.15 K	1.4833	–
[1], 323.15 K	1.48167	–
[1], 328.15 K	1.47999	–
[1], 333.15 K	1.47834	–
[1], 338.15 K	1.47677	–
[1], 343.15 K	1.47511	–
[1], 348.15 K	1.47346	–
[1], 353.15 K	1.47189	–
[2], 298.2 K	–	30.9
[2], 308.5 K	–	30.2
[2], 318 K	–	29.6
[2], 328.8 K	–	28.7
[2], 338.6 K	–	28.1
[2], 343.4 K	–	27.9
